Measurements from patent US9550796B2, “Pyrrolopyrrolone derivatives and their use as BET inhibitors” (NOVARTIS AG, priority 2013, dated 2017).

Legend:
[1] = biological target: BRD4 (Homo sapiens (Human), UniProt O60885); assay: TR-FRET in-vitro binding assay for BRD4; details: 45 nM His-Brd4(44-477), acetyl-histone H4 (AcK 5, 8, 12, 16) peptide
Procedure, shortened: (§1)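 Binding is detected by TR-FRET following incubation for 35 minutes at 30° C.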

[2] = biological target: BRD2 (Homo sapiens (Human), UniProt P25440); assay: TR-FRET in-vitro binding assay for BRD2; details: 45 nM His-Brd2(60-472), acetyl-histone H4 (AcK 5, 8, 12, 16) peptide
Experimental: TR-FRET In-Vitro Binding Assays for BRD2, BRD3, and BRD4: All assays were performed in 384-well microtiter plates. […] Liquid handling and incubation steps were done on an Innovadyne Nanodrop Express equipped with a robotic arm (Thermo CatX, Perkin Elmer/Caliper Twister II) and an incubator (Liconic STX40, Thermo Cytomat 2C450). The assay plates were prepared by addition of 50 nl per well of compound solution in 90% DMSO HummingBird nanodispenser (Zinsser Analytic). […] Reactions were incubated at 30° C. for 35 minutes. […] After 35 minutes incubation at 30° C., plates were measured in a Perkin Elmer EnVision multilabel reader. […] The stock solutions were stored at […] if not used immediately. For the test procedure the vials were defrosted and identified by a scanner whereby a working sheet was generated that guided the subsequent working steps. Compound dilutions were made in 96 well plates. This format enabled the assay of maximally […] at 8 concentrations (single points) including 4 reference compounds, if desired (known BET inhibitors from the prior art, for this and other assays of the type disclosed herein). The dilution protocol included the production of “pre-dilution plates”, “master plates” and “assay plates”. Polypropylene 96-well plates were used as pre-dilution plates. […] All dilution steps were done on a HamiltonSTAR robot. […] Identical “assay plates” were then prepared by pipetting 50 nL each of compound dilutions of the “master plates” into 384-well “assay plates” by means of a HummingBird 384-channel dispenser. These plates were used directly for the assay which was performed in a total volume of 13.55 μL.

[3] = biological target: BRD3 (Homo sapiens (Human), UniProt Q15059); assay: TR-FRET in-vitro binding assay for BRD3; details: 45 nM His-Brd3(20-477), acetyl-histone H4 (AcK 5, 8, 12, 16) peptide
Procedure, shortened: as §1

[4] = system: MV-4-11; assay: Cell growth inhibition assay (CellTiter-Glo), MV-4-11; type: cell-based, human; details: MV-4-11 cells, 4 days; for GI50: Homo sapiens, MV4-11, 96 h, half-maximal growth inhibition; for MV-4-11 TGI: total growth inhibition
Procedure, shortened: (§2)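 ATP content was quantified with CellTiter-Glo after 4-day compound treatment (top 10 μM, 3-fold steps) at 37 °C. Readings were background- and day-0-corrected, scaled so vehicle equals 100% and medium equals −100%. Four-parameter fits gave half-maximal (IC50) and total growth inhibition concentrations.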

[5] = system: THP-1; assay: Cell growth inhibition assay (CellTiter-Glo), THP-1; type: cell-based, human; details: THP-1 cells, 4 days; for GI50: Homo sapiens, 96 h, half-maximal growth inhibition; for THP-1 TGI: total growth inhibition
Procedure, shortened: as §2

[6] = system: K-562; assay: Cell growth inhibition assay (CellTiter-Glo), K-562; type: cell-based, human; details: K-562 cells, 4 days; for GI50: Homo sapiens, K562, 96 h, half-maximal growth inhibition; for K-562 TGI: total growth inhibition
Procedure, shortened: as §2

[7] = biological target: CREBBP (Homo sapiens (Human), UniProt Q92793); assay: AlphaScreen in-vitro binding assay for CREBBP; details: 324 nM His-CREBBP (1081-1197), acetyl-histone H4 (AcK 5, 8, 12) peptide
Procedure, shortened: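 IC50 values were derived by non-linear regression of percent inhibition across 8 compound concentrations. Protein was His-tagged CREBBP bromodomain (1081-1197), peptide acetyl-histone H4 (AcK 5, 8, 12), in HEPES pH 7.5 buffer. Read-out was AlphaScreen with Ni-chelate acceptor and streptavidin donor beads, 35 min at 30° C then 60 min at RT.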

Chain of BRD2 (P25440 60-472): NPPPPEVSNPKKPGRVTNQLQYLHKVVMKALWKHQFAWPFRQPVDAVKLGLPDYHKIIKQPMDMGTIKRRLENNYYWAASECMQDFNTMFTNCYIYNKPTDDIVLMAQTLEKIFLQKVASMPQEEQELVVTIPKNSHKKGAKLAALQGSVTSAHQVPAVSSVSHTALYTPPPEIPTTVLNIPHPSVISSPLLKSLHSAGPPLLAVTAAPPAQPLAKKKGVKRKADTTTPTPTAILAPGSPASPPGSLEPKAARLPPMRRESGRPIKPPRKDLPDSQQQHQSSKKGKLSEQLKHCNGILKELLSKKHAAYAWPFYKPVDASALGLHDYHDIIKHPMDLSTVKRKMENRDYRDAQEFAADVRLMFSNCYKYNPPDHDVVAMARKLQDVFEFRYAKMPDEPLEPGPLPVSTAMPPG
Chain of BRD3 (Q15059 20-477): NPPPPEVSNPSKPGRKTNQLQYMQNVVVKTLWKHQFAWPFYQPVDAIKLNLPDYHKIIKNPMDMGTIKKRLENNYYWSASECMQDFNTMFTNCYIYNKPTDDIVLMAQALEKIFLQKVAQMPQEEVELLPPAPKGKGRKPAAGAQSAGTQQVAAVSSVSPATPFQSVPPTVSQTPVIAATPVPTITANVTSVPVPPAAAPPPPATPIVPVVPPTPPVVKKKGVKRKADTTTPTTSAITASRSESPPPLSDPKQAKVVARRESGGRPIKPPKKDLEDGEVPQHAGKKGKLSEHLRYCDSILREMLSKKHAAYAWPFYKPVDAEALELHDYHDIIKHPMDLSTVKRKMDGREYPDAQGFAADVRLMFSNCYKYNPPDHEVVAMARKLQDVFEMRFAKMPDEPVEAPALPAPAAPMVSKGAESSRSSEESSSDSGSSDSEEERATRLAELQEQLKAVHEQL
Chain of CREBBP (Q92793 1081-1197): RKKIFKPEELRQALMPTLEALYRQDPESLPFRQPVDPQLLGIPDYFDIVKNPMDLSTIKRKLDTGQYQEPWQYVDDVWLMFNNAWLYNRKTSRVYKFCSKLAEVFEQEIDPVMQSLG

SMILES	IC50 [1] [nM]	IC50 [2] [nM]	IC50 [3] [nM]	GI50 [4] [nM]	MV-4-11 TGI [4] [nM]	GI50 [5] [nM]	THP-1 TGI [5] [nM]	GI50 [6] [nM]	K-562 TGI [6] [nM]	IC50 [7] [nM]
COc1ncccc1-c1cc2c([nH]1)C(c1ccc(Cl)cc1)N(c1cc(C)c3nnc(C)n3c1)C2=O (centres unmarked) [Example 27, 6-(4-chlorophenyl)-5-(3,8-dimethyl-[1,2,4]triazolo[4,3-a]pyridin-6-yl)-2-(2-methoxypyridin-3-yl)-5,6-dihydropyrrolo[3,4-b]pyrrol-4(1H)-one]	17	37	21	22.5	37.7	34.4	88	108	>10000	–
Cc1cc(N2C(=O)c3cc(-c4cccc(=O)n4C)n(C)c3C2c2ccc(Cl)cc2)cn(C)c1=O (centres unmarked) [Example 48, 6-(4-chlorophenyl)-5-(1,5-dimethyl-6-oxo-1,6-dihydropyridin-3-yl)-1-methyl-2-(1-methyl-6-oxo-1,6-dihydropyridin-2-yl)-5,6-dihydropyrrolo[3,4-b]pyrrol-4(1H)-one]	110	91	76	150	270	711	1160	1680	>10000	–
Cc1cc(N2C(=O)c3cc(-c4ccnc(C(F)(F)F)n4)n(C)c3C2c2ccc(Cl)cc2)cn(C)c1=O (centres unmarked) [Example 49, 6-(4-chlorophenyl)-5-(1,5-dimethyl-6-oxo-1,6-dihydropyridin-3-yl)-1-methyl-2-(2-(trifluoromethyl)pyrimidin-4-yl)-5,6-dihydropyrrolo[3,4-b]pyrrol-4(1H)-one]	83	76	75	92.3	134	169	301	386	>10000	–
Cc1cc(N2C(=O)c3cc(-c4cccc(N(C)C)n4)n(C)c3C2c2ccc(Cl)cc2)cn(C)c1=O (centres unmarked) [Example 51, 6-(4-chlorophenyl)-5-(1,5-dimethyl-6-oxo-1,6-dihydropyridin-3-yl)-2-(6-(dimethylamino)pyridin-2-yl)-1-methyl-5,6-dihydropyrrolo[3,4-b]pyrrol-4(1H)-one]	33	32	38	88.1	116	104	165	449	>10000	–
COc1ncc(-c2cc3c(n2C)C(c2ccc(Cl)cc2)N(c2cc(C)c(=O)n(C)c2)C3=O)c(OC)n1 (centres unmarked) [Example 53, 6-(4-chlorophenyl)-2-(2,4-dimethoxypyrimidin-5-yl)-5-(1,5-dimethyl-6-oxo-1,6-dihydropyridin-3-yl)-1-methyl-5,6-dihydropyrrolo[3,4-b]pyrrol-4(1H)-one]	40	41	39	–	–	–	–	–	–	–
Cc1cc(N2C(=O)c3cc(-c4cnc(N(C)C)nc4)n(C)c3C2c2ccc(Cl)cc2)cn(C)c1=O (centres unmarked) [Example 57, 6-(4-chlorophenyl)-5-(1,5-dimethyl-6-oxo-1,6-dihydropyridin-3-yl)-2-(2-(dimethylamino)pyrimidin-5-yl)-1-methyl-5,6-dihydropyrrolo[3,4-b]pyrrol-4(1H)-one]	59	50	54	37.6	59.8	76	126	200	>10000	–
COc1ccc(-c2cc3c(n2C)C(c2ccc(Cl)cc2)N(c2cc(C)c(=O)n(C)c2)C3=O)cn1 (centres unmarked) [Example 58, 6-(4-chlorophenyl)-5-(1,5-dimethyl-6-oxo-1,6-dihydropyridin-3-yl)-2-(6-methoxypyridin-3-yl)-1-methyl-5,6-dihydropyrrolo[3,4-b]pyrrol-4(1H)-one]	42	40	34	18.1	33.8	33.2	70.4	133	>10000	–
Cc1cc(N2C(=O)c3cc(-c4cccn(C)c4=O)n(C4CC4)c3C2c2ccc(Cl)cc2)cn(C)c1=O (centres unmarked) [Example 65, 6-(4-chlorophenyl)-1-cyclopropyl-5-(1,5-dimethyl-6-oxo-1,6-dihydropyridin-3-yl)-2-(1-methyl-2-oxo-1,2-dihydropyridin-3-yl)-5,6-dihydropyrrolo[3,4-b]pyrrol-4(1H)-one]	220	120	200	80.4	128.5	96.2	167.5	270	>10000	–
COc1cccc(C2c3c(ccn3C)C(=O)N2c2cc(C)c(=O)n(C)c2)c1 (centres unmarked) [Example 85, 5-(1,5-dimethyl-6-oxo-1,6-dihydropyridin-3-yl)-6-(3-methoxyphenyl)-1-methyl-5,6-dihydropyrrolo[3,4-b]pyrrol-4(1H)-one]	695	740	560	–	–	–	–	–	–	–
COc1cccc(C2c3c(ccn3C)C(=O)N2c2cc(Cl)c(=O)n(C)c2)c1 (centres unmarked) [Example 91, 5-(5-chloro-1-methyl-6-oxo-1,6-dihydropyridin-3-yl)-6-(3-methoxyphenyl)-1-methyl-5,6-dihydropyrrolo[3,4-b]pyrrol-4(1H)-one]	–	830	667	371	641.5	466	1002.5	1720	>10000	–
COc1ccc(C2c3c(ccn3C)C(=O)N2c2cc(Cl)c(=O)n(C)c2)cc1 (centres unmarked) [Example 92, 5-(5-chloro-1-methyl-6-oxo-1,6-dihydropyridin-3-yl)-6-(4-methoxyphenyl)-1-methyl-5,6-dihydropyrrolo[3,4-b]pyrrol-4(1H)-one]	890	850	690	655	1495	680	2405	2870	>10000	–
Cc1cc(N2C(=O)c3c(C4CC4)cn(C4CN(C)C4)c3C2c2ccc(Cl)cc2)nc2c1nnn2C (centres unmarked) [Example 106, 6-(4-chlorophenyl)-3-cyclopropyl-5-(3,7-dimethyl-3H-[1,2,3]triazolo[4,5-b]pyridin-5-yl)-1-(1-methylazetidin-3-yl)-5,6-dihydropyrrolo[3,4-b]pyrrol-4(1H)-one]	12	13	12	0.522	2.23	1.16	3.335	5.68	>10000	–
Cc1cc(N2C(=O)c3c(NC(=O)CN(C)C)cn(C)c3C2c2ccc(Cl)cc2)cn2c(C(F)F)nnc12 (centres unmarked) [Example 134, N-(6-(4-chlorophenyl)-5-(3-(difluoromethyl)-8-methyl-[1,2,4]triazolo[4,3-a]pyridin-6-yl)-1-methyl-4-oxo-1,4,5,6-tetrahydropyrrolo[3,4-b]pyrrol-3-yl)-2-(dimethylamino)acetamide]	22	–	29	31.5	65	34.2	82.4	181	>10000	> 37000
